Results reported in patent US10428347B2, “Herbicide-detoxifying enzymes and uses thereof” (priority 2017, dated 2019).
Several values for one entry are separate records, joined by “and”; a condition that tells them apart may be missing. Equal values may be shown once. Read-outs that look alike come from different tables or passages of the source.

Columns and labels:
[1] = Absorbance spectra assay of dicamba degradation by ChD or CAC
[2] = HPLC; for Dicamba (ppm): samples diluted to expected 35 ppm
Experimental: A Bacillus subtilis (A64) control reaction, which was supernatant with no SM1 enzyme was performed in parallel. The reactions were incubated at 37° C. with 400 rpm stirring for two hours. Aliquots of the reactions were collected at time 0 (T0), 1 hour, and 2 hours, and frozen at −80° C.
HPLC column (Kinetex® 5 μm C18 100 Å, LC Column 50×4.6 mm) was equilibrated for 15 minutes with 35% acetonitrile and 65% 10 mM ammonium acetate with 0.1% formic acid in water. A volume of 10 μL of each sample was injected into Waters 2695 Separations Module with a 2996 Photodiode Array Detector. Samples were run isocratically (35% acetonitrile and 65% 10 mM ammonium acetate with 0.1% formic acid in water) for 2 minutes. […] An average of 3 measurements was run for each treatment sample.
The HPLC results as reported in FIG. 2 are the average of 3 sample measurements.

soybean = experiment: Spray tank dicamba treated with ChD crude cell lysate, applied to field soybean; format: in vivo; settings: field soybean V2-V3, 2 ml of tank sample (about 200 mg/L dicamba, with or without 5% v/v crude cell lysate for 10 minutes), one week after application (FIG. 15)
Experimental: Chlorothalonil dehalogenase (ChD, SEQ ID NO: 168) was prepared as a crude cell lysate as described above in Example 5. […] A 5% v/v solution of the crude cell lysate containing the ChD enzyme was added and the tank was run for an additional 10 minutes. […] Each of the samples was frozen immediately after collection from the tank. Samples were transported to the field on ice to ensure that enzyme activity was halted.

[3] = Spray tank cleaning procedure using salicylate monooxygenase to remove dicamba; settings: spray application using dicamba
sensitive plants = settings: in vivo; cited from earlier work
soybean plants [4] = experiment: V1 soybean bioassay of dicamba reacted with ChD with or without MnSO4
Experimental: Soybean plants (variety Morsoy Xtra) were planted in Timberline soil (2 seeds per pot) and grown for 12 days under controlled environmental growth conditions: 300 μmol m^−2 s^−1 (light photons) for a 13/11 light/day cycle and a 21° C. day/15° C. night temperature range until the V1 stage of development.
The dilution to achieve 100 ppm or 100 mg/L was made in 25 mM HEPES pH 7 in a 10 mL total volume. […] The ChD enzyme production was centrifuged to remove any cellular debris and then divided into aliquots of 100 μL containing the Bacillus subtillis (A64) filtrate with the ChD expressed enzyme. […] The reactions were incubated at 37° C. with 400 ppm stirring for two hours. Aliquots of the reactions were collected and stored at −80° C.

soybean plants [5] = experiment: Trifoliate damage scoring of soybean treated with SM1-dicamba reaction products; format: in vivo; set-up: key: 0: No visible damage; 1: youngest trifoliate has moderate yellowing or curling; 2: youngest trifoliate has moderate yellowing or curling; 3: youngest trifoliate has severe yellowing or curling; 4: youngest trifoliate is completely dead or shriveled; 5: plant is completely necrotic (dead); settings: V1 soybean (Morsoy Xtra), 100 μL reaction product diluted 1:24 with 0.01% SILWET L-77 on trifoliate leaves, 6 plants; Time (hours) 2; scale 0-5
Description: These SM1-dicamba degradation products were applied to soybean seedlings (variety, Morsoy Xtra). […] The plants were scored based on trifoliate damage using the scale as described in Table 27.

[6] = oxidation of NADH
Description: Spectra were read from 200-700 nm with a BioTek SYNERGY HTX plate reader (BioTek Instrument Inc.).
NADH disappears when the molecule is oxidized to NAD^+.

soybean seedlings = experiment: Spray of enzyme-treated dicamba solution onto soybean seedlings; format: in vivo; settings: 2.5-week-old soybean seedlings sprayed with 208 μM dicamba solution with or without immobilized enzyme, one week
Experimental: Salicylate monooxygenase (SM, SEQ ID NO: 21) and hydroxyphenylacetate monooxygenase (HPAM, SEQ ID NO: 30) were immobilized on particles. […] Aliquots (1 ml) were taken from incubated samples at 0 minutes, 10 minutes, 30 minutes, 1 hour, 5 hours, 24 hours and 30 hours after the introduction of SM and immediately frozen to stop the detoxification reaction. NADPH consumption was quantified by measuring loss of absorbance at 340 nm using a spectrophotometer. Results for SM are shown in panel A of FIG. 10 and results for HPAM are shown in panel A of FIG. 11. Consumption of NADPH is proportional to the degradation of dicamba.
Immediately after taking the absorbance measurements, the 1 ml aliquots were mixed with a nonionic organosilicone surfactant copolymer (0.1% SILWET L77) and 200 μL of the mixture was sprayed onto 2.5-week-old soybean seedlings (six plants per treatment group, on average). The use of the surfactant ensured even distribution of the solutions on the plants. Control plants were sprayed with water+surfactant alone or dicamba+surfactant alone. After one week, the degree of herbicide damage or the degree of protection from dicamba-induced injury (in plants treated with SM) was assessed visually.

[7] = Absorbance spectra assay of mecoprop degradation by ChD or CAC; format: biochemical; settings: one hour at 37° C.
Experimental: (§1) Small scale (1 mL) assays were performed to evaluate the ability of ChD and CAC to degrade MCPA-4 amine or mecoprop.
(§2) MCPA-4 amine and mecoprop have absorbance maxima (Amax) at approximately 230 and 280 nm. […] MCPA-4 amine or mecoprop end product generation is directly proportional to the degradation MCPA-4 amine or mecoprop, respectively.

[8] = Absorbance spectra assay of 2,4-D degradation by ChD or CAC; format: biochemical; settings: one hour at 37° C.
[9] = Sequestration of dicamba by ChD (3 kDa filter, absorbance at 230 nm); format: binding; settings: dicamba 100 mg/L, 10, 20, 30 and 40 uL enzyme solution, 5 minutes at 37° C. (FIG. 18)
Experimental: To four of the tubes, enzyme solution was added to four of the tubes at 10, 20, 30, and 40 uL rates. The two tubes without the enzyme solution served as controls for the experiment. When the enzyme was added, five of the tubes (one of the 0 uL enzyme tubes, and all of the tubes with the enzyme added) were placed in the Eppendorf Thermomixer R for 5 minutes, at 37° C., and 800 rpm. After the incubation period, the tubes were removed from the heat and placed on ice to stop the reaction. […] These new tubes were spun at 1400 rpm for five minutes. When the spin was completed, 100 uL of the top and bottom fractions were added into a 96-well UV-Star plate. Spectral readings were then taken from 200 nm to 340 nm. The reads for the buffer alone controls were subtracted from the experimental values. The relative difference between the control without enzyme added and the experimental samples with enzyme added was calculated at 230 nm.

[10] = Absorbance spectra assay of MCPA-4 amine degradation by ChD or CAC; format: biochemical; settings: one hour at 37° C.
Experimental: as §1, §2

[11] = dicamba (CLASH) 200 mg/L alone (no enzyme), 50 mM HEPES pH 7.0, one hour at 37° C.
[12] = dicamba 100 ppm, n=6, scale 0-5

Molecule: COc1c(Cl)ccc(Cl)c1C(=O)O [Dicamba, 3,6-dichloro-2-methoxybenzoic acid]
- Absorbance Maxima at Wavelength (λ) 230 [1, 11]: 1.597 and 1.5967
- Absorbance Maxima at Wavelength (λ) 259 [1, 11]: 0.1597
- Absorbance Maxima at Wavelength (λ) 280 [1, 11]: 0.2845
- Percent Dicamba Concentration Relative to T0 control ([2]; Time 0 hours): 100.0%
- Dicamba (ppm) ([2]; Time 0 hours, 25 mM HEPES pH 7, 37° C.): 34.9 ppm
- Percent Dicamba Concentration Relative to T0 control ([2]; Time 1 hour): 113.6%
- Dicamba (ppm) ([2]; Time 1 hour, 25 mM HEPES pH 7, 0.5 mM NADH where stated, 37° C.): 39.7 ppm
- Percent Dicamba Concentration Relative to T0 control ([2]; Time 2 hours): 106.0%
- Dicamba (ppm) ([2]; Time 2 hours, 25 mM HEPES pH 7, 0.5 mM NADH where stated, 37° C.): 37.0 ppm
- damage to or protection of soybean crop (size and growth vs untreated control) (soybean): significant damage to the crops
- safe zone concentration in rinsate (no injury or harm to the plant or the environment) [3]: ≤ 15 mg/L
- dicamba spray level at which sensitive plants show herbicide damage with pronounced symptoms (sensitive plants): 0.017 kg/ha
- Average Epinasty Score (soybean plants [4]; [12]): 3.0
- average trifoliate damage score (soybean plants [4]; [12]): 3.5
- average trifoliate damage score (soybean plants [4]; dicamba alone at 100 ppm, 150 ppm and 200 ppm): 3.5-3.6
- average trifoliate damage score (soybean plants [5]): 4
- Absorbance at 340 nM ([6]; Time 1 hour): 0.059
- Absorbance at 340 nM ([6]; Time 2 hours): 0.058
- Absorbance at 340 nM ([6]; Time T0): 0.056
- herbicide damage or protection from dicamba-induced injury, assessed visually (soybean seedlings): significant curling of the leaves and stunted growth

B1: ChD: chlorothalonil dehalogenase from Pseudomonas species strain CTN-3, amino acid SEQ ID NO: 168 (protein, listed as Pseudomonas sp.)
chain: MPPGCSGLCSFVGLTMPLKFSGVLCASLLTITLSVAAHATELILDFNKVQMRSQQLAPGVYAHLPADSAELNAKGGVAGTSGGLIVGTRGAMLIETMLNRRLFDQVQALAKKEALGLPLLYAVNTSYHGDHSYGNMYLKAPTRVIQSTKTRDYVDGHLADDKAFMVKNFGAGRGVEQITARTGDILVPPGGRVSVDLGGKTVEIIDFGFAQTGGDLFVWEPQSKVMWTGNAVVASKPALPWLLDGKLVETLATLQKVYDFLPPDATIVPGHGVPMAREGLRWHLDYLAAVQAGVKDALARKLSLEQTVTELKMPEFRGYVLFDWVHPDLNVPAAYKDLAARP
- Percent (%) increase in 259 λ (end product formed) compared to dicamba control ([1]; dicamba 200 mg/L + enzyme at 20X dilution (5 μM), one hour at 37° C.): 501%
- damage to or protection of soybean crop (size and growth vs untreated control) (soybean): almost complete protection of the plants
- Percent (%) increase in 252 λ (end-product formed) compared to Mecoprop control ([7]; mecoprop 200 mg/L + enzyme at 20X dilution (5 μM)): 164%
- Percent (%) increase in 252 λ (end-product formed) compared to Mecoprop control ([7]; mecoprop 200 mg/L + enzyme at 40X dilution ([…])): 129%
- Percent (%) increase in 252 λ, (end product formed) compared to 2,4-D control ([8]; 2,4-D 200 mg/L + enzyme at 20X dilution (5 μM)): 196%
- Percent (%) increase in 252 λ, (end product formed) compared to 2,4-D control ([8]; 2,4-D 200 mg/L + enzyme at 40X dilution ([…])): 122%
- dicamba in a bound state (relative absorbance at 230 nm of 3 kDa filter fractions) [9]: dose-dependent effect
- Percent (%) increase in 252 λ (end product formed) compared to MCPA-4-Amine control ([10]; MCPA-4 amine 200 mg/L + enzyme at 20X dilution (5 μM)): 464%
- Percent (%) increase in 252 λ (end product formed) compared to MCPA-4-Amine control ([10]; MCPA-4 amine 200 mg/L + enzyme at 40X dilution ([…])): 128.9%
